One assay has as its target PI3Kγ (Homo sapiens, UniProt P48736). As to the kind of experiment: ADP-Glo luminescent assay, enzymatic activity of PI3K gamma. The assay is classed as biochemical. The note with it: ATP 25 μM; read-out: PI3K gamma (nM) inhibitory activity (IC50). How it is done: The compounds would be tested from 1 or 10 μM, 3-fold dilution for 10 doses, in duplicate.
Compound preparation: Dilute a compound to 100× of the final desired highest inhibitor concentration in reaction by 100% DMSO. Transfer 100 μl of this compound dilution to a well in a 96-well plate and serially dilute it with DMSO for a total of 10 concentrations.
Kinase reaction: Prepare a solution of PI3K in 1× kinase buffer at 2-fold the final concentration of each reagent in the assay. Control wells contain 1× kinase buffer without enzyme. Prepare substrate solution of PIP2 substrate and ATP in 1× kinase reaction buffer at 2-fold of the final concentration. Add concentration substrate solution to each well to the final concentration. Cover the assay plate, shake to mix, and incubate at room temperature for 1 hour. Add 5 μl of ADP-Glo reagent to each well to stop the reaction. […] Add 10 ul Kinase Detection Reagent to each well, shake 1 min, equilibrate for 30 min before reading on a luminescence plate reader.
Data Analysis: Convert RLU values to percent inhibition values as Percent inhibition=(max−sample RLU)/(max−min)*100. “min”—no enzyme control; “max”—DMSO control. Fit the data in XLFit excel add-in version 5.4.0.8 to obtain IC50 values. Y=Bottom+(Top−Bottom)/(1+(IC50/X)^HillSlope).

Another assay has as its target T1, PI3K gamma (Mus musculus, UniProt Q9JHG7).
T1 construct: endogenous in cells; host or cells: RAW264.7
Nature of the assay: Raw264.7 cell assay: phosphorylation of AKT in C5a stimulated RAW264.7 cells (AlphaLISA). The assay is classed as cell-based. The note with it: pAKT, read-out: PI3K gamma Raw264.7 cell (nM) cellular activity (IC50). As for the experimental part:
This study aims to determine the inhibitory effect of compounds on PI3K gamma and PI3K delta in corresponding cell based assays. PI3K gamma activity was reflected by phosphorylation of AKT in C5a stimulated RAW264.7 cells, and PI3K delta activity was reflected by phosphorylation of AKT in anti-IgM stimulated Raji cells. Phosphorylation of AKT in cells was determined using AlphaLISA technology from PerkinElmer.
Raw264.7 cell assay: Prepare Passage 15 Raw264.7 cell and add 6 μL of 30K cells per well in 384-well plate by multidrop. Centrifuge at 500 RPM for 30 s and incubate for 2 hours at 37° C., 5% CO2. Add 30 nL compound by echo and incubate for 30 min at 37° C., 5% CO2. […] Add 2 μL of 5× lysis buffer by multidrop, incubate for 10 min on a plate shaker. Add 5 μL acceptor mix provided in the kit, centrifuge at 1000 RPM for 1 min. Add 5 μL donor mix provided in the kit, centrifuge at 1000 RPM for 1 min and incubate in dark for 2 hours at 25° C. Read AlphaLISA signal on Envision.
Y=Bottom+(Top−Bottom)/(1+10^((Log IC50−X)*Hill Slope)) X: Log of cpd concentration Y: Inhibition
On the technique in general: In Alpha technology, singlet oxygen from a donor bead excites a nearby acceptor bead.

Sequence of PI3Kγ (P48736 whole entry, species assumed): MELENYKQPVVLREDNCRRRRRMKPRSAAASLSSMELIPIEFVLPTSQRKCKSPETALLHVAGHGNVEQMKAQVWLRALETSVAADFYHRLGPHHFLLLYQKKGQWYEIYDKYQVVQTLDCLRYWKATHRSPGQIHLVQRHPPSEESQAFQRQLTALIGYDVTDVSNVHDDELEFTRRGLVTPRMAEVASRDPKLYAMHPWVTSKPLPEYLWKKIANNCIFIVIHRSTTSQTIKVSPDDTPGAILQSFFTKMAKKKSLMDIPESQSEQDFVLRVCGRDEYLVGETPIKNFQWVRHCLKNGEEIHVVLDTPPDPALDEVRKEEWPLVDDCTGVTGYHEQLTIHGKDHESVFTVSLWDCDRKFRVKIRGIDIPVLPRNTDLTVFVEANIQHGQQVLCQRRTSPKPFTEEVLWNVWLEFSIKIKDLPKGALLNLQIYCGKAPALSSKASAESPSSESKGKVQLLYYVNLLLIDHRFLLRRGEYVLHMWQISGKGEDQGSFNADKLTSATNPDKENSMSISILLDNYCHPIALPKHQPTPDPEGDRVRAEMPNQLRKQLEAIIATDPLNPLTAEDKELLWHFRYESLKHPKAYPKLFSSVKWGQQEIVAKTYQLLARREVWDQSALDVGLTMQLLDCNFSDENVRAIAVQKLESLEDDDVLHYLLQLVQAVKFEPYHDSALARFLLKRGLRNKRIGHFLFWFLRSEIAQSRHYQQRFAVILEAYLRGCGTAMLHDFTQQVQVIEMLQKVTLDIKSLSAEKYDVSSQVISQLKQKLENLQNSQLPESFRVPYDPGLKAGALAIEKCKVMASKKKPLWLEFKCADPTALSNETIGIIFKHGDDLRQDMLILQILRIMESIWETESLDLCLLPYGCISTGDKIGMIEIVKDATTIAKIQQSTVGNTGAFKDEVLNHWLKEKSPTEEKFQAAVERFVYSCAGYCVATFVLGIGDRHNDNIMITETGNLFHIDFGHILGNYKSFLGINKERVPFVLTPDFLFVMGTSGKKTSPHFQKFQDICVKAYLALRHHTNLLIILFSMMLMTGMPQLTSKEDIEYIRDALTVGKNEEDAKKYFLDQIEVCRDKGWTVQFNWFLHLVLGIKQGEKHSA
T1 sequence (Q9JHG7 whole entry): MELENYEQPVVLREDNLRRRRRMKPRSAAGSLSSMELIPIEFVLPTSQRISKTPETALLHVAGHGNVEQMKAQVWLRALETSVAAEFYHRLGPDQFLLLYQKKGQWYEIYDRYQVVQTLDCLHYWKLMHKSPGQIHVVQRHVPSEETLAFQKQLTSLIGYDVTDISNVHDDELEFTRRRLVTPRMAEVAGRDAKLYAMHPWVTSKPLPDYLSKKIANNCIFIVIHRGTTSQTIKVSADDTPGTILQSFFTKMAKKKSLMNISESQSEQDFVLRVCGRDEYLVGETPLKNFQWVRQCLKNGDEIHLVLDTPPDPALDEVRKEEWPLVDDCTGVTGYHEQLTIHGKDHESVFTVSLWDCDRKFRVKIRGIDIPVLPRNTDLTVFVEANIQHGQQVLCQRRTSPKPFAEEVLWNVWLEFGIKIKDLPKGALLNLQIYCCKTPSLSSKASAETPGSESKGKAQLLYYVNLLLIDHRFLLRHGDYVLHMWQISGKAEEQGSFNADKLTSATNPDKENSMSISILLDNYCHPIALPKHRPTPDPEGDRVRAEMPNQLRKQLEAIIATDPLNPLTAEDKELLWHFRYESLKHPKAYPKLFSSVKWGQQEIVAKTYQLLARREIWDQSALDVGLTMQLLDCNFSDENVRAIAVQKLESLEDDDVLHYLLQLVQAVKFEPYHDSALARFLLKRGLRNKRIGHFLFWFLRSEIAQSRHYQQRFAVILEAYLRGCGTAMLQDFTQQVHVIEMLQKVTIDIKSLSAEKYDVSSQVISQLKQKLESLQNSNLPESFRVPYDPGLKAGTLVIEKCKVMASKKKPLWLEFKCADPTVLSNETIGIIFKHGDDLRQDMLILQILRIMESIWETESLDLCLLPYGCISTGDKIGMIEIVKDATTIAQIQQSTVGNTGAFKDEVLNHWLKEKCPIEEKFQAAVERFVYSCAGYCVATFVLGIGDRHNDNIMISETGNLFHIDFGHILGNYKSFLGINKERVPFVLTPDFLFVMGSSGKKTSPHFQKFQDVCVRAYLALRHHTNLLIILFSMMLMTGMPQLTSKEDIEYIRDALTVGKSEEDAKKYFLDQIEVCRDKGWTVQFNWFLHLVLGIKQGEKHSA
T1 sequence (Q5SW28 whole entry partner): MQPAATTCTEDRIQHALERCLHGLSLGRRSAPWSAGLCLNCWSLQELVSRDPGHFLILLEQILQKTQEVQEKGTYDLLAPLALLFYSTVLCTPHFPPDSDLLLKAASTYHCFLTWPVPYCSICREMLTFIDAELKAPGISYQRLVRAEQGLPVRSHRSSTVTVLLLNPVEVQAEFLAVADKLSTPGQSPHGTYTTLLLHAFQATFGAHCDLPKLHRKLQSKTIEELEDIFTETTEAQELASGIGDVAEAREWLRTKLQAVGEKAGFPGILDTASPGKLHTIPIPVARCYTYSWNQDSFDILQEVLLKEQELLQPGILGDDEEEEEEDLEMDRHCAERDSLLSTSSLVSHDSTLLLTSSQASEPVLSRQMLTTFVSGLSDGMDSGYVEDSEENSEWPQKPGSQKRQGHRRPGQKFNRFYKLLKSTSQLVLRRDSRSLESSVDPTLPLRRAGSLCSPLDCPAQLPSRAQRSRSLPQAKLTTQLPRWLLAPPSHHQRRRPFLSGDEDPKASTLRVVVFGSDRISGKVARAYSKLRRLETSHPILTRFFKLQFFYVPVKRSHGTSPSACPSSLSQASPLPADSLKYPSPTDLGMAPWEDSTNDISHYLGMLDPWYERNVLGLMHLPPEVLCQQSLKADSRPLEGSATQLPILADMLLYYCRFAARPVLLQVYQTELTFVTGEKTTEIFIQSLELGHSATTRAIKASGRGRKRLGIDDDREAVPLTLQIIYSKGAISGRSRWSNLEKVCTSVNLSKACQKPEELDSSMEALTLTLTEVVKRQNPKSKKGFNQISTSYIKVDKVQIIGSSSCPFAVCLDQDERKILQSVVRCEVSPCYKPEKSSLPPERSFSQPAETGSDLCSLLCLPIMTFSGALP

With `CC[S@@+]([O-])c1cc(-c2sc(NC(C)=O)nc2C)cc2c1C(=O)N([C@@H](C)C1CC1)C2` (racemic) [Compound 13, N-(5-(2-((S)-1-cyclopropylethyl)-7-(ethylsulfinyl)-1-oxoisoindolin-5-yl)-4-methylthiazol-2-yl)acetamide], the IC50 at PI3Kγ turned out to be 3.1 nM; on PI3K gamma, 22 nM.

As for `CC(=O)Nc1nc(C)c(-c2cc3c(c([S+]([O-])C(C)C)c2)C(=O)N([C@@H](C)C2CC2)C3)s1` (mixture of isomers) [Compound 14, N-(5-(2-((S)-1-cyclopropylethyl)-7-(isopropylsulfinyl)-1-oxoisoindolin-5-yl)-4-methylthiazol-2-yl)acetamide], the concentration for half-maximal inhibition (IC50) at PI3Kγ was 4.2 nM; on PI3K gamma it was 27 nM.

Consider `CC(=O)Nc1nc(C)c(-c2cc3c(c([S+](C)[O-])c2)C(=O)N(C(C)(C)C)C3)s1` (racemic) [Compound 17, N-(5-(2-(tert-butyl)-7-(methylsulfinyl)-1-oxoisoindolin-5-yl)-4-methylthiazol-2-yl)acetamide], for which the results for the half-inhibitory concentration (IC50) on PI3Kγ and on PI3K gamma were 4.5 nM and 118 nM, respectively.

Turning to `CC(=O)Nc1nc(C(F)F)c(-c2cc3c(c([S@@+](C)[O-])c2)C(=O)N([C@@H](C)C2CC2)C3)s1` (racemic) [Compound 18, N-(5-(2-((S)-1-cyclopropylethyl)-7-(methylsulfinyl)-1-oxoisoindolin-5-yl)-4-(difluoromethyl)thiazol-2-yl)acetamide], on PI3Kγ, the half-inhibitory concentration (IC50) was found to be 16 nM.

Take `CC(=O)Nc1nc(C)c(-c2cc3c(c(N4CCOCC4)n2)C(=O)N(C(C)C(F)(F)F)C3)s1` (stereo in doubt) [Compound 37, (S)-N-(4-methyl-5-(4-morpholino-3-oxo-2-(1,1,1-trifluoropropan-2-yl)-2,3-dihydro-1H-pyrrolo[3,4-c]pyridin-6-yl)thiazol-2-yl)acetamide]: at PI3Kγ, the half-inhibitory concentration (IC50) was 9 nM.

As for `Cc1nc(NC(=O)C2CC2)sc1-c1cc2c(c(P(C)(C)=O)c1)C(=O)N([C@@H](C)C1CC1)C2` [Compound 3, (S)-N-(5-(2-(1-cyclopropylethyl)-7-(dimethylphosphoryl)-1-oxoisoindolin-5-yl)-4-methylthiazol-2-yl)cyclopropanecarboxamide], on PI3Kγ, the IC50 worked out at 7.7 nM.

As for `Cc1nc(NC(=O)C(C)C)sc1-c1cc2c(c(P(C)(C)=O)c1)C(=O)N([C@@H](C)C1CC1)C2` [Compound 4, (S)-N-(5-(2-(1-cyclopropylethyl)-7-(dimethylphosphoryl)-1-oxoisoindolin-5-yl)-4-methylthiazol-2-yl)isobutyramide], the IC50 was found to be 4.5 nM at PI3Kγ and 1850 nM at PI3K gamma.

With `CCP(=O)(CC)c1cc(-c2sc(NC(C)=O)nc2C)cc2c1C(=O)N([C@@H](C)C1CC1)C2` [Compound 5, (S)-N-(5-(2-(1-cyclopropylethyl)-7-(diethylphosphoryl)-1-oxoisoindolin-5-yl)-4-methylthiazol-2-yl)acetamide], the half-inhibitory concentration (IC50) at PI3Kγ worked out at 5.9 nM; at PI3K gamma it was 307 nM.

On to `CC(=O)Nc1nc(C)c(-c2ccc3c(n2)CN([C@@H](C)C2CC2)C3=O)s1` [Compound 9, (S)-N-(5-(6-(1-cyclopropylethyl)-5-oxo-6,7-dihydro-5H-pyrrolo[3,4-b]pyridin-2-yl)-4-methylthiazol-2-yl)acetamide], for which the IC50 on PI3Kγ was 22 nM.

For `CC(=O)Nc1nc(C)c(-c2cc3c(c(N4CCCC4=O)n2)C(=O)N([C@@H](C)C2CC2)C3)s1` [Compound 25, (S)-N-(5-(2-(1-cyclopropylethyl)-3-oxo-4-(2-oxopyrrolidin-1-yl)-2,3-dihydro-M-pyrrolo[3,4-c]pyridin-6-yl)-4-methylthiazol-2-yl)acetamide], the IC50 at PI3Kγ stood at 3.8 nM; on PI3K gamma it was 446 nM.

As to `CC(=O)Nc1nc(C)c(-c2cc3c(c(C)n2)C(=O)N([C@@H](C)C2CC2)C3)s1` [Compound 27, (S)-N-(5-(2-(1-cyclopropylethyl)-4-methyl-3-oxo-2,3-dihydro-1H-pyrrolo[3,4-c]pyridin-6-yl)-4-methylthiazol-2-yl)acetamide], the IC50 on PI3Kγ and at PI3K gamma was 29 nM each time.

Consider `CC(=O)Nc1nc(C)c(-c2cc3c(c(NC(=O)N(C)C)n2)C(=O)N([C@@H](C)C2CC2)C3)s1` [Compound 28, (S)-N-(5-(2-(1-cyclopropylethyl)-4-(3,3-dimethylureido)-3-oxo-2,3-dihydro-1H-pyrrolo[3,4-c]pyridin-6-yl)-4-methylthiazol-2-yl)acetamide], for which the concentration for half-maximal inhibition (IC50) on PI3Kγ is 1.5 nM; at PI3K gamma, 65 nM.

As to `CC(=O)Nc1nc(C)c(-c2cc3c(c(C(=O)N(C)C)n2)C(=O)N([C@@H](C)C2CC2)C3)s1` [Compound 29, (S)-6-(2-acetamido-4-methylthiazol-5-yl)-2-(1-cyclopropylethyl)-N,N-dimethyl-3-oxo-2,3-dihydro-1H-pyrrolo[3,4-c]pyridine-4-carboxamide], the IC50 at PI3Kγ came out at 2.5 nM; at PI3K gamma, 3240 nM.

With `CC(=O)Nc1nc(C)c(-c2cc3c(c(C(=O)O)n2)C(=O)N([C@@H](C)C2CC2)C3)s1` [Compound 30, (S)-6-(2-acetamido-4-methylthiazol-5-yl)-2-(1-cyclopropylethyl)-3-oxo-2,3-dihydro-1H-pyrrolo[3,4-c]pyridine-4-carboxylic acid], at PI3Kγ, the IC50 stood at 56 nM.

Regarding `CC(=O)Nc1nc(C)c(-c2cc3c(c(C(N)=O)n2)C(=O)N([C@@H](C)C2CC2)C3)s1` [Compound 31, (S)-6-(2-acetamido-4-methylthiazol-5-yl)-2-(1-cyclopropylethyl)-3-oxo-2,3-dihydro-1H-pyrrolo[3,4-c]pyridine-4-carboxamide], the IC50 at PI3Kγ is 2.3 nM.

Regarding `CNC(=O)c1nc(-c2sc(NC(C)=O)nc2C)cc2c1C(=O)N([C@@H](C)C1CC1)C2` [Compound 32, (S)-6-(2-acetamido-4-methylthiazol-5-yl)-2-(1-cyclopropylethyl)-N-methyl-3-oxo-2,3-dihydro-1H-pyrrolo[3,4-c]pyridine-4-carboxamide], the IC50 at PI3Kγ worked out at 2.2 nM; at PI3K gamma it was 208 nM.

On to `CC(=O)Nc1nc(C)c(-c2cc3c(c(C(=O)N4CCOCC4)n2)C(=O)N([C@@H](C)C2CC2)C3)s1` [Compound 33, (S)-N-(5-(2-(1-cyclopropylethyl)-4-(morpholine-4-carbonyl)-3-oxo-2,3-dihydro-1H-pyrrolo[3,4-c]pyridin-6-yl)-4-methylthiazol-2-yl)acetamide], for which the IC50 at PI3Kγ was 6.5 nM.

As for `[2H]C([2H])([2H])Oc1nc(-c2sc(NC(C)=O)nc2C)cc2c1C(=O)N([C@@H](C)C1CC1)C2` [Compound 43, (S)-N-(5-(2-(1-cyclopropylethyl)-4-(methoxy-d3)-3-oxo-2,3-dihydro-1H-pyrrolo[3,4-c]pyridin-6-yl)-4-methylthiazol-2-yl)acetamide], on PI3Kγ, the IC50 was determined as 2.6 nM.

As to `CC(=O)Nc1nc(C)c(-c2cc3c(c(NC(=O)C4CC4C#N)n2)C(=O)N([C@@H](C)C2CC2)C3)s1` (stereo partly drawn) [Compound 45, N-(6-(2-acetamido-4-methylthiazol-5-yl)-2-((S)-1-cyclopropylethyl)-3-oxo-2,3-dihydro-1H-pyrrolo[3,4-c]pyridin-4-yl)-2-cyanocyclopropane-1-carboxamide], the IC50 at PI3Kγ amounted to 0.8 nM.

For the compound `CC(=O)Nc1nc(C)c(-c2cc3c(c(N4CCC(O)C4)n2)C(=O)N([C@@H](C)C2CC2)C3)s1` (stereo partly drawn) [Compound 47, N-(5-(2-((S)-1-cyclopropylethyl)-4-(3-hydroxypyrrolidin-1-yl)-3-oxo-2,3-dihydro-1H-pyrrolo[3,4-c]pyridin-6-yl)-4-methylthiazol-2-yl)acetamide], the IC50 on PI3Kγ came to 0.61 nM.

Regarding `CC(=O)Nc1nc(C)c(-c2cc3c(c(OC4CCOC4)n2)C(=O)N([C@@H](C)C2CC2)C3)s1` (stereo partly drawn) [Compound 51, N-(5-(2-((S)-1-cyclopropylethyl)-3-oxo-4-((tetrahydrofuran-3-yl)oxy)-2,3-dihydro-1H-pyrrolo[3,4-c]pyridin-6-yl)-4-methylthiazol-2-yl)acetamide], the half-maximal inhibitory concentration (IC50) on PI3Kγ was found to be 0.65 nM.

Regarding `CC(=O)Nc1nc(Cl)c(-c2cc3c(c(N4CCOCC4)n2)C(=O)N([C@@H](C)C2CC2)C3)s1` [Compound 53, (S)-N-(4-chloro-5-(2-(1-cyclopropylethyl)-4-morpholino-3-oxo-2,3-dihydro-1H-pyrrolo[3,4-c]pyridin-6-yl)thiazol-2-yl)acetamide], at PI3Kγ, the IC50 is 1.8 nM.

The term IC50 denotes the point on the concentration scale where inhibition reaches its midpoint.

For the origin of these results see patent publication US11542262B2, “Phosphatidylinositol 3-kinase inhibitors” (NANJING ZHENGXIANG PHARMACEUTICALS CO., LTD., priority 2019, dated 2023).
